This assay deals with T1, human TMEM16A (TMEM16Aabc variant) (Homo sapiens, UniProt Q5XXA6, DEL476-501).
T1 sequence (Q5XXA6 with tags, fused parts or gaps isoform Q5XXA6-5 DEL539-564): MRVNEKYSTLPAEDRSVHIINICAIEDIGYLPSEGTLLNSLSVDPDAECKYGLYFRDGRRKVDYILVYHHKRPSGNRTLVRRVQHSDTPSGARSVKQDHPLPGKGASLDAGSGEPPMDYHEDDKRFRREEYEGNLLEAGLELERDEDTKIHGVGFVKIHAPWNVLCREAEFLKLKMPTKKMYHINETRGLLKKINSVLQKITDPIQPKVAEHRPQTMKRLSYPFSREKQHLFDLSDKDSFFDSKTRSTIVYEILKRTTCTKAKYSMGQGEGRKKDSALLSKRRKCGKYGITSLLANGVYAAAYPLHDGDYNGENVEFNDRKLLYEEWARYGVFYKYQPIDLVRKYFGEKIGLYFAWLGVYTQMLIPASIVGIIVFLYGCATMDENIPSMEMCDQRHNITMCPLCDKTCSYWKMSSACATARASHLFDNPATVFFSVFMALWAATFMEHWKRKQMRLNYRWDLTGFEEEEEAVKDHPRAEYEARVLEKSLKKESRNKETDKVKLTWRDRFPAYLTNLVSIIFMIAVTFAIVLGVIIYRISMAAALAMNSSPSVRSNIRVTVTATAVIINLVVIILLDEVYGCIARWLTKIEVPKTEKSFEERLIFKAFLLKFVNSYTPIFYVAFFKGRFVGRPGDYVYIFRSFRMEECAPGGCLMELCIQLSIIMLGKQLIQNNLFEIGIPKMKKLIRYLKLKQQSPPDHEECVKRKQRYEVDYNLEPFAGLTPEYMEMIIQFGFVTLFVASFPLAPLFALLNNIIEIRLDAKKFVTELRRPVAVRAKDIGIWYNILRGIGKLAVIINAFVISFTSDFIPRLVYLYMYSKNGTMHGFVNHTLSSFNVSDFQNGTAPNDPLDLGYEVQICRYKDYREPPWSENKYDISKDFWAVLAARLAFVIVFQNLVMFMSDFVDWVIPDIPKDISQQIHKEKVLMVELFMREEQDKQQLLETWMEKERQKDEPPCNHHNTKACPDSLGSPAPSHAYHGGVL
Briefly: Automated whole-cell patch clamp (Qpatch) TMEM16A potentiator assay in recombinant FRT cells. Particulars: for activation at 3.33 µM: percentage increase of baseline TMEM16A current, minimum n = 2, read-out: % Potentiation @ 3.33 uM Avg; for EC50: minimum n = 2. In kind it is cell-based. The method, then: Automated Whole-Cell Patch Clamp Assay to Detect TMEM16A Activity in Recombinant Cells
Fisher rat thyroid (FRT) cells stably expressing human TMEM16A (TMEM16Aabc variant; Dr Luis Galietta, Insituto Giannina, Italy) were cultured in T-75 flasks in Hams F-12 media with Coon's modification (Sigma) supplemented with 10% (v/v) foetal bovine serum, penicillin-streptomycin (10,000 U/mL/10000 μg/mL), G-418 (750 μg/mL), L-glutamine (2 mM) and sodium bicarbonate solution (7.5% v/v). At ˜90% confluence cells were harvested for experiments by detachment with a 2:1 (v/v) mixture of Detachin (BMS Biotechnology) and 0.25% (w/v) trypsin-EDTA.
FRT-TMEM16A cells were whole-cell patch clamped using an automated planar patch clamp system (Qpatch, Sophion). Briefly, once high resistance (GOhm) seals were established between the cells and the planar recording array the patch was ruptured using suction pulses to establish the whole-cell recording configuration of the patch clamp technique. The assay employed the following solutions (all reagents Sigma): Intracellular solution (mM): N-methyl-D-glucamine 130, CaCl2 18.2, MgCl2 1, HEPES 10, EGTA 10, BAPTA 20, Mg-ATP 2, pH 7.25, 325 mOsm with sucrose.
Extracellular solution (mM): N-methyl-D-glucamine 130, CaCl2 2, MgCl2 1, HEPES 10, pH 7.3, 320 mOsm with sucrose.
The intracellular solution buffers intracellular calcium at levels required to give ˜20% activation of the maximal TMEM16A mediated current (E020 for calcium ions). Cells were voltage clamped at a holding potential of −70mV and a combined voltage step (to +70 mV)/ramp (−90 my to +90 mV) was applied at 0.05 Hz. After a period of current stabilisation test compounds, solubilised in 100% (v/v) DMSO and subsequently diluted into extracellular solution, were applied to generate a cumulative concentration response curve. Each concentration of test compound was incubated for 5 minutes before addition of the next concentration. After the final concentration was tested a supramaximal concentration of either a known active positive modulator or the TMEM16A inhibitor, CaCCinhA01 (Del La Fuente et al, 2008) was added to define the upper and lower limits of the assay.
Compound activity was quantified by measuring the increase in current upon compound addition and expressing this as a percentage increase of baseline TMEM16A current level.
Peak TMEM16A current at +70 mV was plotted as a function of time over the assay period. Baseline current (IBL) was measured after a period of stabilisation. The increase in current for each compound addition was determined by taking the peak current during the incubation period and subtracting the current from the previous recording period and then expressing this as a percentage of the baseline current (% potentiation). For test compound concentration 1 in FIG. 1 this is:
For each additional concentration tested the increase in current was determined by subtracting the current from the previous incubation period and normalising the baseline value—for test concentration 2 in FIG. 1 this is:
The values for each test concentration were plotted as a cumulative function of concentration eg. for test concentration two this would be the sum of the peak changes measured during concentration one plus concentration two.
In general terms: In patch-clamp work, channel activity is measured electrically.

The source of these data is patent US20220235006A1, “PYRIDINE DERIVATIVES AS TMEM16A MODULATORS FOR USE IN THE TREATMENT OF RESPIRATORY CONDITIONS” (TMEM16A LIMITED, priority 2019, published 2022).

In general, EC50 refers to the concentration needed to bring the measured effect to its halfway point.

In the case of `CC(C)(CO)c1cc(F)c(CC(=O)Nc2ccnc(C(=O)NC3(C(F)(F)F)COC3)c2)cc1O` [Example 12.1, 4-[[2-[2-Fluoro-5-hydroxy-4-(2-hydroxy-1,1-dimethyl-ethyl)phenyl]acetyl]amino]-N-[3-(trifluoromethyl)oxetan-3-yl]pyridine-2-carboxamide], the activation at 3.33 µM was 406% and the EC50 stood at 52 nM.

For `Cc1cc(C(C)(C)O)c(O)cc1CC(=O)Nc1ccnc(C(=O)NC2(C(F)(F)F)CC2)c1` [Example 2.12, 4-[[2-[5-Hydroxy-4-(1-hydroxy-1-methyl-ethyl)-2-methyl-phenyl]acetyl]amino]-N-[1-(trifluoromethyl)cyclopropyl]pyridine-2-carboxamide], the activation at 3.33 µM amounted to 209% and the half-maximal effective concentration (EC50) came to 42 nM.

For `C#CC(C)(C)NC(=O)c1cc(NC(=O)Cc2cc(O)c(C(C)(C)CO)cc2Cl)ccn1` [Example 15.1, 4-[[2-[2-Chloro-5-hydroxy-4-(2-hydroxy-1,1-dimethyl-ethyl)phenyl]acetyl]amino]-N-(1,1-dimethylprop-2-ynyl)pyridine-2-carboxamide], the activation at 3.33 µM stood at 190% and the 50% effective concentration (EC50) amounted to 41 nM.

On to `CC1(NC(=O)c2cc(NC(=O)Cc3cc(O)c(C(C)(C)CO)cc3F)ccn2)CCOCC1` [Example 16.1, 4-[[2-[2-Fluoro-5-hydroxy-4-(2-hydroxy-1,1-dimethyl-ethyl)phenyl]acetyl]amino]-N-(4-methyltetrahydropyran-4-yl)pyridine-2-carboxamide], for which the activation at 3.33 µM worked out at 214% and the EC50 worked out at 181 nM.

Take `CC(CO)c1cc(F)c(CC(=O)Nc2ccnc(C(=O)NC3(C)CCOCC3)c2)cc1O` (stereo not shown) [Example 16.3, 4-[[2-[2-Fluoro-5-hydroxy-4-(2-hydroxy-1-methyl-ethyl)phenyl]acetyl]amino]-N-(4-methyltetrahydropyran-4-yl)pyridine-2-carboxamide]: the activation at 3.33 µM was determined as 140% and the EC50 is 407 nM.

With `CC(C)(O)c1cc(F)c(CC(=O)Nc2ccnc(C(=O)NC3(C(F)(F)F)CC3)c2)c(Cl)c1O` [Example 18, 4-[[2-[2-Chloro-6-fluoro-3-hydroxy-4-(1-hydroxy-1-methyl-ethyl)phenyl]acetyl]amino]-N-[1-(trifluoromethyl)cyclopropyl]pyridine-2-carboxamide], the activation at 3.33 µM came out at 315% and the EC50 stood at 268 nM.

Consider `CC(C)(CO)c1cc(F)c(CC(=O)Nc2ccnc(C(=O)NC3(CO)CCC3)c2)cc1O` [Example 12.4, 4-[[2-[2-Fluoro-5-hydroxy-4-(2-hydroxy-1,1-dimethyl-ethyl)phenyl]acetyl]amino]-N-[1-(hydroxymethyl)cyclobutyl]pyridine-2-carboxamide], for which the activation at 3.33 µM came to 342% and the EC50 is 214 nM.

For `CC(C)(CO)NC(=O)c1cc(NC(=O)Cc2cc(O)c(C(C)(C)CO)cc2F)ccn1` [Example 12.3, 4-[[2-[2-Fluoro-5-hydroxy-4-(2-hydroxy-1,1-dimethyl-ethyl)phenyl]acetyl]amino]-N-(2-hydroxy-1,1-dimethyl-ethyl)pyridine-2-carboxamide], the activation at 3.33 µM was 97.2% and the EC50 worked out at 238 nM.

Regarding `O=C(Cc1cc(O)c(C2(CO)CCOCC2)cc1F)Nc1ccnc(C(=O)NC2(C(F)(F)F)CC2)c1` [Example 2.15, 4-[[2-[2-Fluoro-5-hydroxy-4-[4-(hydroxymethyl)tetrahydropyran-4-yl]phenyl]acetyl]amino]-N-[1-(trifluoromethyl)cyclopropyl]pyridine-2-carboxamide], the activation at 3.33 µM was found to be 413% and the EC50 stood at 279 nM.

For the molecule `C#CC(C)(C)NC(=O)c1cc(NC(=O)Cc2cc(O)c(C(C)(C)CO)cc2F)ccn1` [Example 16, N-(1,1-Dimethylprop-2-ynyl)-4-[[2-[2-fluoro-5-hydroxy-4-(2-hydroxy-1,1-dimethyl-ethyl)phenyl]acetyl]amino]pyridine-2-carboxamide], the activation at 3.33 µM is 74.5% and the EC50 worked out at 19 nM.

Regarding `O=C(Cc1cc(O)c(C2(O)CCOCC2)cc1F)Nc1ccnc(C(=O)NC2(C(F)(F)F)CC2)c1` [Example 13, 4-[[2-[2-Fluoro-5-hydroxy-4-(4-hydroxytetrahydropyran-4-yl)phenyl]acetyl]amino]-N-[1-(trifluoromethyl)cyclopropyl]pyridine-2-carboxamide], the activation at 3.33 µM was 196% and the half-maximal effective concentration (EC50) is 221 nM.

Turning to `CC1(NC(=O)c2cc(NC(=O)Cc3cc(O)c(C(C)(C)CO)cc3F)ccn2)CC(F)(F)C1` [Example 15, N-(3,3-Difluoro-1-methyl-cyclobutyl)-4-[[2-[2-fluoro-5-hydroxy-4-(2-hydroxy-1,1-dimethyl-ethyl)phenyl]acetyl]amino]pyridine-2-carboxamide], the activation at 3.33 µM was determined as 113% and the EC50 is 14 nM.

As to `CC(C)(CO)c1cc(F)c(CC(=O)Nc2ccnc(C(=O)NC3(C(F)F)CC3)c2)cc1O` [Example 15.4, N-[1-(Difluoromethyl)cyclopropyl]-4-[[2-[2-fluoro-5-hydroxy-4-(2-hydroxy-1,1-dimethyl-ethyl)phenyl]acetyl]amino]pyridine-2-carboxamide], the activation at 3.33 µM was determined as 226% and the EC50 was found to be 60 nM.

For the molecule `CC(C)(C)NC(=O)c1cc(NC(=O)Cc2cc(O)c(C(C)(C)O)cc2F)ccn1` [Example 7, N-tert-Butyl-4-[[2-[2-fluoro-5-hydroxy-4-(1-hydroxy-1-methyl-ethyl)phenyl]acetyl]amino]pyridine-2-carboxamide], the activation at 3.33 µM stood at 83.6% and the EC50 is 68 nM.

With `CC(C)(C#N)NC(=O)c1cc(NC(=O)Cc2cc(O)c(C(C)(C)CO)cc2F)ccn1` [Example 16.2, N-(1-Cyano-1-methyl-ethyl)-4-[[2-[2-fluoro-5-hydroxy-4-(2-hydroxy-1,1-dimethyl-ethyl)phenyl]acetyl]amino]pyridine-2-carboxamide], the activation at 3.33 µM was 295% and the concentration giving a half-maximal response (EC50) was found to be 115 nM.

Take `CC(C#N)(CO)NC(=O)c1cc(NC(=O)Cc2cc(O)c(C(C)(C)C)cc2F)ccn1` (stereo not shown) [Example 1.6]: the activation at 3.33 µM came out at 121% and the EC50 was found to be 40 nM.

`N#CC1(c2cc(F)c(CC(=O)Nc3ccnc(C(=O)NC4(C(F)(F)F)CC4)c3)cc2O)CCOCC1` [Example 2.9, 4-[[2-[4-(4-Cyanotetrahydropyran-4-yl)-2-fluoro-5-hydroxy-phenyl]acetyl]amino]-N-[1-(trifluoromethyl)cyclopropyl]pyridine-2-carboxamide]: the activation at 3.33 µM stood at 295% and the EC50 was found to be 149 nM.
